The values below come from US5965607A, “Substituted Benzo[1,4]dioxines as antiobesity agents” (American Home Products Corporation, priority 1997, dated 1999).

One test concerns plasma free fatty acids. As to the kind of experiment: Effects on free fatty acid levels in rats. In kind it is in vivo, rat. The following applies: for Rat Free Fatty Acid, elevation of plasma free fatty acids as % of Standard 2 response: 0.1 mg/kg via gavage, blood collected 50 min later, relative to Standard 2 at 0.1 mg/kg. On the procedure: Rats respond to a single oral dose of β3 agonist by increasing plasma free fatty acids (FFA) in response to β3 receptor stimulation on the plasma membrane of the fat cell. 5-{2-[2-(3-Chloro-phenyl)-2-hydroxy-ethylamino]-propyl}-benzo[1,3]dioxole- 2,2-dicarboxylic acid diisopropyl ester (Standard 2) was used as a standard compound. All test compounds were dosed at 0.1 mg/kg and compared to the response by Standard 2.
1). Drugs were dissolved in DMSO at 10 mg/mL.
2). Twenty μl of the DMSO-drug solution was added to 10 mL methyl cellulose:Tween-80 (0.5%:0.1%) for a final concentration of 20 μg/mL.
3). Methyl cellulose:tween-80 drug suspension was given via gavage (1 mL/200g body weight; or 0.1 mg/kg) to rats and blood was collected 50 min later.
4). Plasma was analyzed for free fatty acids using a kit supplied by Biochemical Diagnostics Inc. (Brentwood, N.Y.).
5). Drug response was calculated from the formula below. [formula] Effects on Hyperglycemia in Mice
b Elevation of plasma free fatty acids in rats, compounds tested at 0.1 mg/kg, results expressed as % of 5-{2-[2-(3-chloro-phenyl)-2-hydroxy-ethylamino]-propyl}-benzo[1,3]dioxole- 2,2-dicarboxylic acid diisopropyl ester response (78% increase) at 0.1 mg/kg.

Test [1] addresses human β2 adrenergic receptors (Homo sapiens, UniProt P07550). Put plainly: cAMP elevation in CHO cells transfected with human β2 adrenergic receptor. In kind it is cell-based. The following applies: 10 min, CHO cells expressing human β2 receptor, compound at 10 nM, 37° C., relative to isoproterenol at 10 μM; for activation at 0.01 µM: read-out: β2, % of isoproterenol activity (increase in cAMP). On the procedure: (§1) The activity of the test compounds on human β-adrenergic receptors was determined with Chinese hamster ovary (CHO) cells transfected with human β3, β2, or β1 adrenergic receptors. The preparation of these cells has been described in Emorine, L. J., Marullo, S., Briend-Sutren, M., Patey, G., Tate, K., Delavier-Klutchko, C., Strosberg, A. D. Molecular Characterization of the Human Beta 3-AdrenergicReceptor Science 1989,245(8), 1118-1121 and in Muzzin, P., Revelli, J.-P., Kuhne, F., Gocayne, J. D., McCombie, W. R., Venter, J. C., Giacobino, J.- P., Fraser, C. M. An Adipose Tissue-Specific Beta 3-Adrenergic Receptor. Molecular Cloning and Down-Regulation in Obesity J. Biol. Chem. 1991, 226, 24053-24058. Agonist activity is indicated by increased cAMP levels in the CHO cells. Selectivity of the test compounds for the β3 receptor was assessed by comparison with results in β2 and β1 adrenergic receptor transfected cells.
(§2) 1). Chinese hamster ovary (CHO) cells transfected with human β3, β2, or β1 adrenergic receptors were used in the assay.
(§3) 2). Cells were grown to confluent conditions in 24 well plates.
(§4) 3). Drugs were dissolved in DMSO at a concentration of 10 μM.
(§5) 4). Cells were incubated with drug at 10 nM concentration for 10 min at 37° C. Isoproterenol (Standard 1) was used as the standard compound and assayed at 10 μM which gives a maximal cAMP elevation in all 3 cell types.
(§6) 5). Cell cAMP concentrations were assayed using a scintillation proximity assay from Amersham Corp (Chicago, Ill.).
(§7) 6). Activities for the test compounds are expressed as a percentage of the isoproterenol response.
(§8) a Human β receptors expressed in Chinese hamster ovary cells, compounds tested at 10 nM, results expressed as % of isoproterenol activity (increase in cAMP) at 10 μM.

The target in test [2] is human β3 adrenergic receptors (Homo sapiens, UniProt P13945). As to the kind of experiment: cAMP elevation in CHO cells transfected with human β3 adrenergic receptor. In kind it is cell-based. The following applies: 10 min, CHO cells expressing human β3 receptor, compound at 10 nM, 37° C., relative to isoproterenol at 10 μM; for activation at 0.01 µM: read-out: β3, % of isoproterenol activity (increase in cAMP). On the procedure:
as §1, §2, §3, §4, §5, §6, §7, §8

Each structure is given as a SMILES string.

human β2 adrenergic receptors, sequence (P07550 whole entry): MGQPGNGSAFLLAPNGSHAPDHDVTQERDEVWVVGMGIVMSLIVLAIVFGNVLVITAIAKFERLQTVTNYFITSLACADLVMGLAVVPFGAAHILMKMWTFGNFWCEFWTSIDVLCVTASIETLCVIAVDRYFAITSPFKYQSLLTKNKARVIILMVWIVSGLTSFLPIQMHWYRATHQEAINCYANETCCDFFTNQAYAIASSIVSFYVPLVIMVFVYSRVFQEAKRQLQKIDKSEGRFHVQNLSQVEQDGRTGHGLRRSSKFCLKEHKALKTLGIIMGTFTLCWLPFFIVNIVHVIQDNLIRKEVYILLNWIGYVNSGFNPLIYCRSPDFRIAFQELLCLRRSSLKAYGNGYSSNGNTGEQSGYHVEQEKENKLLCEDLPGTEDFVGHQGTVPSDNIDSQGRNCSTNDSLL
human β3 adrenergic receptors, sequence (P13945 whole entry): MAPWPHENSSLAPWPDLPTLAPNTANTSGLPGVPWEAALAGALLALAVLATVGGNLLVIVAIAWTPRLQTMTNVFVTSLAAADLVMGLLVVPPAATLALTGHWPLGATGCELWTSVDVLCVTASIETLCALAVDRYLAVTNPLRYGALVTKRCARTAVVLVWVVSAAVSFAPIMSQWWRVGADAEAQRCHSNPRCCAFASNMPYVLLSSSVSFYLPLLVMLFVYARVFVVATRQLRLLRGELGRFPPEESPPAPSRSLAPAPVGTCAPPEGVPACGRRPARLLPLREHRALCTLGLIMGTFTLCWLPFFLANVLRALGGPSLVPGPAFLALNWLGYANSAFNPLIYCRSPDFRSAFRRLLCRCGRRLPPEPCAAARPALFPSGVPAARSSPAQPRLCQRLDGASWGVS

`CCOC(=O)C1Oc2ccc(C[C@@H](C)NC[C@H](O)c3cccc(Cl)c3)cc2OC1C(=O)OCC` (stereo partly drawn) [Example 8, (2,3-cis)-6-{(2R)-2-[(2R)-2-(3-Chloro-phenyl)-2-hydroxy-ethylamino]-propyl}-2,3-dihydro-benzo[1,4]dioxine-2,3-dicarboxylic acid diethyl ester]: the “Rat Free Fatty Acid, elevation of plasma free fatty acids as % of Standard 2 response” value with plasma free fatty acids worked out at 19%.

Regarding `CC(Cc1ccc2c(c1)OC(C(=O)OC(C)C)(C(=O)OC(C)C)O2)NCC(O)c1cccc(Cl)c1` (centres unmarked) [5-{2-[2-(3-Chloro-phenyl)-2-hydroxy-ethylamino]-propyl}-benzo[1,3]dioxole-2,2-dicarboxylic acid diisopropyl ester, reference compound], the “increase of plasma free fatty acids in rats” value with plasma free fatty acids (0.1 mg/kg, response of the standard itself) stood at 78%.

`CCCCCCCCOC(=O)C1Oc2ccc(C[C@@H](C)NC[C@H](O)c3cccc(Cl)c3)cc2OC1C(=O)OCCCCCCCC` (stereo partly drawn) [Example 11, (2,3-cis)-6-{(2R)-2-[(2R)-2-(3-Chloro-phenyl)-2-hydroxy-ethylamino]-propyl}-2,3-dihydro-benzo[1,4]dioxine-2,3-dicarboxylic acid dioctyl ester]: in the test with plasma free fatty acids, the “Rat Free Fatty Acid, elevation of plasma free fatty acids as % of Standard 2 response” value worked out at 5%. Further, the results for the activation at 0.01 µM in test [1] and in test [2] were 38% and 97%, respectively.

As to `CC(C)OC(=O)C1Oc2ccc(C[C@@H](C)NC[C@H](O)c3cccc(Cl)c3)cc2OC1C(=O)OC(C)C` (some centres unmarked) [Example 4], the “Rat Free Fatty Acid, elevation of plasma free fatty acids as % of Standard 2 response” value in the test on plasma free fatty acids is on record as 32%. For the same compound, the activation at 0.01 µM in test [1] is 9%; in test [2], 4%.

With `C[C@H](Cc1ccc2c(c1)OC(C(=O)OCc1ccccc1)C(C(=O)OCc1ccccc1)O2)NC[C@H](O)c1cccc(Cl)c1` (stereo partly drawn) [Example 12, (2,3-cis)-6-{(2R)-2-[(2R)-2-(3-Chloro-phenyl)-2-hydroxy-ethylamino]-propyl}-2,3-dihydro-benzo[1,4]dioxine-2,3-dicarboxylic acid dibenzyl ester], the “Rat Free Fatty Acid, elevation of plasma free fatty acids as % of Standard 2 response” value in the test with plasma free fatty acids is recorded as 11%. Besides, the values for the activation at 0.01 µM in test [1] and in test [2] were 11% and 27%, respectively.

Turning to `C[C@H](Cc1ccc2c(c1)OC(C(=O)OC1CCCC1)C(C(=O)OC1CCCC1)O2)NC[C@H](O)c1cccc(Cl)c1` (stereo partly drawn) [Example 10, (2,3-cis)-6-{(2R)-2-[(2R)-2-(3-Chloro-phenyl)-2-hydroxy-ethylamino]-propyl}-2,3-dihydro-benzo[1,4]dioxine-2,3-dicarboxylic acid dicyclopentyl ester], the “Rat Free Fatty Acid, elevation of plasma free fatty acids as % of Standard 2 response” value in the test on plasma free fatty acids is given as 20%. For the same compound, the activation at 0.01 µM in test [1] came out at 4%; in test [2], 3%.

Take `CCCCOC(=O)C1Oc2ccc(C[C@@H](C)NC[C@H](O)c3cccc(Cl)c3)cc2OC1C(=O)OCCCC` (some centres unmarked) [Example 6]: in the test on plasma free fatty acids, the “Rat Free Fatty Acid, elevation of plasma free fatty acids as % of Standard 2 response” value was found to be 0%. Besides, the activation at 0.01 µM in test [1] came out at 16%; in test [2] it was 51%.

Take `C[C@H](Cc1ccc2c(c1)OC(C(=O)OC1CCCCC1)C(C(=O)OC1CCCCC1)O2)NC[C@H](O)c1cccc(Cl)c1` (stereo partly drawn) [Example 9, (2,3-cis)-6-{(2R)-2-[(2R)-2-(3-Chloro-phenyl)-2-hydroxy-ethylamino]-propyl}-2,3-dihydro-benzo[1,4]dioxine-2,3-dicarboxylic acid dicyclohexyl ester]: the “Rat Free Fatty Acid, elevation of plasma free fatty acids as % of Standard 2 response” value in the test with plasma free fatty acids is reported as 3%. Also, the activation at 0.01 µM stood at 1% in test [1] and 3% in test [2].

As for `CC(C)OC(=O)C1Oc2cc(C[C@@H](C)NC[C@H](O)c3cccc(Cl)c3)ccc2OC1C(=O)O` (stereo partly drawn) [Example 5, (2,3-cis)-6-{(2R)-2-[(2R)-2-(3-Chloro-phenyl)-2-hydroxy-ethylamino]-propyl}-2,3-dihydro-benzo[1,4]dioxine-2,3-dicarboxylic acid 3-isopropyl ester], the “Rat Free Fatty Acid, elevation of plasma free fatty acids as % of Standard 2 response” value in the test on plasma free fatty acids was 6%. In addition, the figures for the activation at 0.01 µM in test [1] and in test [2] were 11% and 50%, respectively.

On to `CCOCCOC(=O)C1Oc2ccc(C[C@@H](C)NC[C@H](O)c3cccc(Cl)c3)cc2OC1C(=O)OCCOCC` (relative stereo) [Example 7, (2,3-cis)-6-{(2R)-2-[(2R)-2-(3-Chloro-phenyl)-2-hydroxy-ethylamino]-propyl}-2,3-dihydro-benzo[1,4]dioxine-2,3-dicarboxylic acid bis-(2-ethoxy-ethyl)ester], for which, in the test with plasma free fatty acids, the “Rat Free Fatty Acid, elevation of plasma free fatty acids as % of Standard 2 response” value turned out to be 7%. For the same compound, the “β2, % of isoproterenol activity (increase in cAMP)” value in test [1] came out at 33%. Moreover, the “β3, % of isoproterenol activity (increase in cAMP)” value in test [2] is on record as 40%.
